Results on 2 compounds are retold here after US6653320B2, “Imidazopyridine derivatives” (Yamanouchi Pharmaceutical Co. Ltd., priority 2000, dated 2003).

The subject of one experiment is A375 cells. The experiment is described as follows: Melanoma cell growth inhibition. The following applies: Homo sapiens, A-375, incubation over 46 hours, Alamar Blue. In kind it is cell-based. How it is done: A375 cells from a melanoma cell line were cultured in DMEM medium (GIBCO) supplemented with 10% fetal bovine serum. A375 cells at 10,000 cells/100 μl were added to a 96 well plate which contained 1 μl/well of the test compounds (final concentration of 0.001˜30 μM). After incubation for over 46 hours, Alamar Blue reagent was added to the medium (10 μl/well). Two hours after the addition, a ratio of fluorescent intensity at an excitation wavelength of 530 nm to that at an emission wavelength of 590 nm was measured to determine the IC50 of the test compounds in the same manner as in the above examples.

A further experiment has as its target T1, bovine p110α (Bos taurus, UniProt P32871).
T1 construct: made in house
The experiment is described as follows: Inhibition of PI3K (p110α subtype). In kind it is biochemical. Particulars: compared with known PI3K inhibitor LY294002. On the procedure:
The resulting mixture was stirred and then centrifuged. After the organic layer was extracted twice with 150 μl of MeOH/1M HCl (1:1). The radioactivity was measured using Cerenkov light.

The test system of the next experiment is HCT116 cells. In kind it is cell-based. Particulars: HCT116 colon cancer cells, incubation over 72 hours, Alamar Blue, result in words. How it is done:
HCT116 cells from a colon cancer cell line were cultured in McCoy's 5A medium (GIBCO) supplemented with 10% fetal bovine serum. HCT116 cells were inoculated on a 96 well plate (5000 cells/well) followed by overnight incubation. The test compound diluted with the medium was added to the medium in a final concentration of 0.1 to 30 μM (final DMSO concentration, 1%). After incubation for over 72 hours, Alamar Blue reagent was added to the medium. Two hours after the addition, a ratio of fluorescent intensity at an excitation wavelength of 530 nm to that at an emission wavelength of 590 nm was measured to determine the IC50.

T1 sequence (P32871 whole entry): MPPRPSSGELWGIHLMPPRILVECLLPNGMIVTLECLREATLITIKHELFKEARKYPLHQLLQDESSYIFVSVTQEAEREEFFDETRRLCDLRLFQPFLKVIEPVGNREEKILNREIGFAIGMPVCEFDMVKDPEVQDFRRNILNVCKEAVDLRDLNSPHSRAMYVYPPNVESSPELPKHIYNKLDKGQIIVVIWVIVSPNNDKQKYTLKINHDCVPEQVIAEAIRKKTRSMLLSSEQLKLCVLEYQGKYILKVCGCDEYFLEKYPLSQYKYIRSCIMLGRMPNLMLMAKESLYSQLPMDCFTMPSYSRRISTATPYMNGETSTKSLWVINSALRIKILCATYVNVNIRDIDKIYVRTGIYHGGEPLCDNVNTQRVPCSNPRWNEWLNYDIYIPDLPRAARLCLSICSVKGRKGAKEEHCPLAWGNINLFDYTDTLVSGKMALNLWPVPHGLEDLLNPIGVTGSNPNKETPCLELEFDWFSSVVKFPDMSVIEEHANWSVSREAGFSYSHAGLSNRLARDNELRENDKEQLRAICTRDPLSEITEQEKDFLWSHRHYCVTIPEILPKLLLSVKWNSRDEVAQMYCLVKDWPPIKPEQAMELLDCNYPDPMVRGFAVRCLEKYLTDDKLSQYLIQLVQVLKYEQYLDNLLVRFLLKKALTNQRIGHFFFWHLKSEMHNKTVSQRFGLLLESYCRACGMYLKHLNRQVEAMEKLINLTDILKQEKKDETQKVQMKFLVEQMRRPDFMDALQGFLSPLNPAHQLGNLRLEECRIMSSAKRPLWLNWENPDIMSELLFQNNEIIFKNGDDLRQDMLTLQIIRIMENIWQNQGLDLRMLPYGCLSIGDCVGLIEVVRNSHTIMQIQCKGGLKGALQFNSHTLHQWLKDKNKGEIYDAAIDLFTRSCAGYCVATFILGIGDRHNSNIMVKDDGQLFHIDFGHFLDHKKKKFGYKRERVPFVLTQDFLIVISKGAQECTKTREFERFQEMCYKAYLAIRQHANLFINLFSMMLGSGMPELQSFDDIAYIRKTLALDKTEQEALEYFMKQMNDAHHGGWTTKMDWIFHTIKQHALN

One may read the IC50 as the concentration needed to halve the response being measured. Low values mean higher potency, high ones lower potency. On to `Cc1ccc2ncc(C=NN(C)S(=O)(=O)c3cc([N+](=O)[O-])ccc3C)n2c1` [Compound 99, 1′,2-dimethyl-2′-[(6-methylimidazo[1,2-a]pyridin-3-yl)methylidene]-5-nitrobenzenesulfonohydrazide], for which the IC50 in the experiment on A375 cells was under 1000 nM. For `Cc1ccc([N+](=O)[O-])cc1S(=O)(=O)n1ccc(-c2c(C)nc3ccc(Br)cn23)n1` [Compound 6, 3-(6-Bromo-2-methylimidazo[1,2-a]pyridin-3-yl)-1H-pyrazol-1-yl 2-methyl-5-nitrophenyl sulfone], the “PI3K inhibition, strength relative to LY294002” value on bovine p110α is “more than 10 times”. In the experiment on HCT116 cells, the “cancer cell growth inhibition activity” value was “good cancer cell growth inhibition activity”.
